Where a name gives a salt, the structure may show the parent alone.
Tested on: HCT116
Conditions: 72 h
Method in brief: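 Luminescence was read with CellTiter-Glo in HCT116 cells seeded at 250 per well in 1536-well plates. Signals were scaled between vehicle at 0% and positive control at -100%, then pattern-corrected. IC50 and maximal efficacy were obtained by fitting a four-parameter Hill equation.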

IC50 cell viability (ICRF193 0 nM) [µM]	IC50 cell viability (ICRF193 200 nM) [µM]	SMILES
> 45.8	> 45.8	O=C(O)c1ccc(OCCCOc2ccc(C(=O)O)cc2)cc1 [1,3-Bis(4-carboxyphenoxy)propane]
> 45.8	> 45.8	CN(C)Cc1ccccc1 [N,N-Dimethylbenzylamine]
> 45.8	> 45.8	CC(C)C[C@H](NC(=O)[C@@H](COC(C)(C)C)NC(=O)[C@H](Cc1ccc(O)cc1)NC(=O)[C@H](CO)NC(=O)[C@H](Cc1c[nH]c2ccccc12)NC(=O)[C@H](Cc1cnc[nH]1)NC(=O)[C@@H]1CCC(=O)N1)C(=O)N[C@@H](CCCNC(=N)N)C(=O)N1CCC[C@H]1C(=O)NNC(N)=O [Goserelin (acetate)]
> 45.8	> 45.8	CC(C)=CCC/C(C)=C/CO [Geraniol]
> 45.8	> 45.8	CCc1cc(C(N)=S)ccn1 [Ethionamide]
> 45.8	> 45.8	OC[C@@H]1NC[C@@H](O)[C@H](O)[C@H]1O [deoxynorjrimycin(1)]
> 45.8	> 45.8	CCC1(C)CC(=O)NC1=O (configuration not stated) [Ethosuximide]
> 45.8	> 45.8	CCN(CC)CCS(=O)(=O)[C@@H]1CCN2C(=O)c3coc(n3)CC(=O)C[C@H](O)/C=C(C)/C=C/CNC(=O)/C=C/[C@@H](C)[C@@H](C(C)C)OC(=O)[C@@H]12 [Dalfopristin]
> 45.8	> 45.8	NS(=O)(=O)c1cc(C(=O)O)cc(N2CCCC2)c1Oc1ccccc1 [Piretanide]
> 45.8	> 45.8	CN(C)c1nc(N(C)C)nc(N(C)C)n1 [Altretamine]
> 45.8	> 45.8	COc1ccc(-c2c(Cl)ncn2-c2ccc(S(N)(=O)=O)cc2)cc1F [Cimicoxib]
> 45.8	> 45.8	CN1CCN(c2cc3c(cc2F)c(=O)c(C(=O)O)cn3-c2ccc(F)cc2)CC1 [Difloxacin hydrochloride]
> 45.8	> 45.8	Cn1cnc2c1c(=O)[nH]c(=O)n2C [Theobromine]
> 45.8	> 45.8	CC(CC(c1ccccc1)c1ccccc1)NC(C)(C)C (configuration not stated) [Terodiline hydrochloride]
> 45.8	> 45.8	CC(CN1c2ccccc2Sc2cccnc21)N(C)C (configuration not stated) [Isothipendyl hydrochloride]
> 45.8	> 45.8	OC(Cn1cncn1)(Cn1cncn1)c1ccc(F)cc1F [Fluconazole]
> 45.8	> 45.8	CC(C)[C@H]1CC[C@H](C)C[C@@H]1O [(1S,2R,5S)-(+)-Menthol]
> 45.8	> 45.8	NS(=O)(=O)c1cc2c(cc1C(F)(F)F)NCNS2(=O)=O [Hydroflumethiazide]
> 45.8	> 45.8	CC(C(=O)O)c1ccc(-c2ccccc2)c(F)c1 (configuration not stated) [Flurbiprofen]
> 45.8	> 45.8	CCCCCCCCCCCCCCCCCCOCC(O)CO (configuration not stated) [3-(Octadecyloxy)-1,2-propanediol]
> 45.8	> 45.8	COC1=C(OC)C(=O)C(C/C=C(\C)CC/C=C(\C)CC/C=C(\C)CC/C=C(\C)CC/C=C(\C)CC/C=C(\C)CC/C=C(\C)CC/C=C(\C)CC/C=C(\C)CCC=C(C)C)=C(C)C1=O [Coenzyme Q10]
> 45.8	> 45.8	N=C(N)NCCC[C@@H](NC(=O)[C@@H]1CCCN1C(=O)[C@@H]1CSSCCC(=O)N[C@@H](Cc2ccc(O)cc2)C(=O)N[C@@H](Cc2ccccc2)C(=O)N[C@@H](CCC(N)=O)C(=O)N[C@@H](CC(N)=O)C(=O)N1)C(=O)NCC(N)=O [Desmopressin (Acetate)]
> 45.8	> 45.8	CC(C)N(CCCCOCC(=O)NS(C)(=O)=O)c1cnc(-c2ccccc2)c(-c2ccccc2)n1 [NS-304]
> 45.8	> 45.8	COc1cc(/C=C/C(=O)O[C@H]2CC[C@]34C[C@]35CC[C@]3(C)[C@@H]([C@H](C)CCC=C(C)C)CC[C@@]3(C)[C@@H]5CC[C@H]4C2(C)C)ccc1O [gamma-Oryzanol]
> 45.8	> 45.8	O=C1[C@H](CC[C@H](O)c2ccc(F)cc2)[C@@H](c2ccc(O)cc2)N1c1ccc(F)cc1 [Ezetimibe]

IC50 cell viability (ICRF193 0 nM) [µM]	IC50 cell viability (ICRF193 200 nM) [µM]	SMILES
> 45.8	> 45.8	CC(=O)Nc1ccc(CC(=O)O)cc1 [4-Acetylaminophenylacetic acid]
> 45.8	> 45.8	O=P(O)(O)C(O)(Cc1cnc2ccccn12)P(=O)(O)O [Minodronic acid]
> 45.8	> 45.8	CS(=O)(=O)c1ccc([C@H](O)[C@@H](COC(=O)CN)NC(=O)C(Cl)Cl)cc1 [Thiamphenicol glycinate]
> 45.8	> 45.8	CC(/C=C/C=C(\C)C(=O)O[C@@H]1O[C@H](CO[C@@H]2O[C@H](CO)[C@@H](O)[C@H](O)[C@H]2O)[C@@H](O)[C@H](O)[C@H]1O)=C\C=C\C=C(C)\C=C\C=C(/C)C(=O)O[C@@H]1O[C@H](CO[C@@H]2O[C@H](CO)[C@@H](O)[C@H](O)[C@H]2O)[C@@H](O)[C@H](O)[C@H]1O [Crocin?]
> 45.8	> 45.8	Cc1c(C)c2c(c(C)c1OC(=O)c1cccnc1)CC[C@@](C)(CCC[C@H](C)CCC[C@H](C)CCCC(C)C)O2 (racemic) [DL-alpha Tocopheryl nicotinate]
> 45.8	> 45.8	CCCc1nc2c(C)cc(-c3nc4ccccc4n3C)cc2n1Cc1ccc(-c2ccccc2C(=O)O)cc1 [Telmisartan]
> 45.8	> 45.8	O=C(O)C(=O)O.[NH-][C@@H]1CCCC[C@H]1[NH-].[Pt+2] [Oxaliplatin]
> 45.8	> 45.8	CCOc1ccc(NC(C)=O)cc1 [Phenacetin]
> 45.8	> 45.8	N[C@@H](CC(=O)N1CCn2c(nnc2C(F)(F)F)C1)Cc1cc(F)c(F)cc1F [Sitagliptin]
> 45.8	> 45.8	CN1CCC[C@@H]1c1cccnc1 [D-Nicotine]
> 45.8	> 45.8	CC(C)OC(=O)CCC/C=C\C[C@@H]1[C@@H](CC[C@@H](O)CCc2ccccc2)[C@H](O)C[C@@H]1O [Latanoprost]
> 45.8	> 45.8	C#C[C@]1(O)CC[C@H]2[C@@H]3CCc4cc(OC)ccc4[C@H]3CC[C@@]21C [Mestranol]
> 45.8	> 45.8	CCn1cc(C(=O)O)c(=O)c2cc(F)c(N3CCNCC3)nc21 [Enoxacin]
> 45.8	> 45.8	Sc1nc2ccccc2s1 [2-Mercaptobenzothiazole]
> 45.8	> 45.8	COc1ccc(-c2ccc3cc(C(=O)O)ccc3c2)cc1C12CC3CC(CC(C3)C1)C2 [Adapalene]
> 45.8	> 45.8	O=C(O)CCSC[C@H]1O[C@@H]2O[C@H]3[C@H](O)[C@@H](O)[C@@H](O[C@H]4[C@H](O)[C@@H](O)[C@@H](O[C@H]5[C@H](O)[C@@H](O)[C@@H](O[C@H]6[C@H](O)[C@@H](O)[C@@H](O[C@H]7[C@H](O)[C@@H](O)[C@@H](O[C@H]8[C@H](O)[C@@H](O)[C@@H](O[C@H]9[C@H](O)[C@@H](O)[C@@H](O[C@H]1[C@H](O)[C@H]2O)O[C@@H]9CSCCC(=O)O)O[C@@H]8CSCCC(=O)O)O[C@@H]7CSCCC(=O)O)O[C@@H]6CSCCC(=O)O)O[C@@H]5CSCCC(=O)O)O[C@@H]4CSCCC(=O)O)O[C@@H]3CSCCC(=O)O [Sugammadex]
> 45.8	> 45.8	COc1ccc([C@]2(C#N)CC[C@@H](C(=O)O)CC2)cc1OC1CCCC1 [Cilomilast]
> 45.8	> 45.8	CC(=O)c1ccc(S(=O)(=O)NC(=O)NC2CCCCC2)cc1 [Acetohexamide]
> 45.8	> 45.8	C[C@@](Cc1ccc(O)c(O)c1)(NN)C(=O)O [Carbidopa]
> 45.8	> 45.8	CCCCC/C=C\C/C=C\C/C=C\CCCCC(=O)O [Gamolenic acid]
> 45.8	> 45.8	OC[C@H]1O[C@@](CO)(O[C@H]2O[C@H](CO)[C@@H](O)[C@H](O)[C@H]2O)[C@@H](O)[C@@H]1O [Sucrose]
> 45.8	> 45.8	CC(C)(C)C(=O)OCOC(=O)[C@@H]1N2C(=O)[C@@H](NC(=O)[C@H](N)c3ccccc3)[C@H]2SC1(C)C [Pivampicillin]
> 45.8	> 45.8	OCCOc1ccc(/C(=C(/CCCl)c2ccccc2)c2ccccc2)cc1 [Ospemifene]
> 45.8	> 45.8	COc1cc(CC2NCCc3cc(O)c(O)cc32)cc(OC)c1OC (configuration not stated) [Trimethoquinol]

SMILES	IC50 cell viability (ICRF193 0 nM) [µM]	IC50 cell viability (ICRF193 200 nM) [µM]
CN(C)C(=O)Oc1ccc[n+](C)c1 [Pyridostigmine bromide]	> 45.8	> 45.8
CC1(C)[C@H](C=C(Cl)Cl)[C@H]1C(=O)OCc1c(F)c(F)cc(F)c1F [Transfluthrin]	> 45.8	> 45.8
C#C[C@]1(O)C=C[C@H]2[C@@H]3CCC4=CC(=O)CC[C@@H]4[C@H]3CC[C@@]21CC [Gestodene]	> 45.8	> 45.8
C#CCN(C)[C@H](C)Cc1ccccc1 [Selegiline hydrochloride]	> 45.8	> 45.8
CC(=O)O[C@H]1CC[C@H]2[C@@H]3CCC4=CC(=O)CCC4=C3C=C[C@]12C [Trenbolone (acetate)]	> 45.8	> 45.8
CC(NC(C)(C)C)C(=O)c1cccc(Cl)c1 (configuration not stated) [Bupropion hydrochloride]	> 45.8	> 45.8
Cl[C@H]1[C@H](Cl)[C@@H](Cl)[C@@H](Cl)[C@H](Cl)[C@H]1Cl [LINDANE]	> 45.8	> 45.8

Reference: the supplement of paper PMC12137928
